{"source": "patent US20090203010A1", "about": "“MSMB-gene based diagnosis, staging and prognosis of prostate cancer” (Katholieke Universiteit Leuven, K.U. Leuven R&D, priority 2008, published 2009)", "assay_type_in_all_cases": "cell-based, Human", "key": {"MSMB gene": {"test_system": "MSMB gene", "assay": "Quantitative RT-PCR of the MSMB transcript level in PC-3 cells", "protocol": "(a) The relative amounts of EZH2 (left panel) and MSMB transcripts (right panel) in the indicated prostate cell lines were determined by quantitative RT-PCR with intron-spanning primers. Human prostate PC-3 cells (adenocarcinoma), LNCaP cells (carcinoma) and DU 145 cells (carcinoma) were cultured as monolayers in 50% Dulbecco's modified Eagle's medium (DMEM) and 50% Ham's F12, RPMI1640 and DMEM, respectively, supplemented with 10% fetal calf serum. PZ-HPV-7 cells, an immortalized cell line derived from normal human prostate cells, were cultured in keratinocyte-serum free medium supplemented with 5 ng/ml human recombinant epidermal growth factor and 0.05 mg/ml bovine pituitary extract. Total RNA was isolated using the Genelute Mammalian Total RNA Miniprep kit (Sigma, St. Louis, Mo., USA). A total of […] RNA was reverse-transcribed with oligo dT primer (Sigma) and the M-MulV reverse transcriptase (Fermentas GMBH, St. Leon-Rot, Germany). cDNA (1.5%) was analyzed by real-time PCR in triplicate using a Platinum SYBR Green qPCR SuperMix-UDG (Invitrogen, Paisly, UK) in a Rotorgene detection system (Corbett Research, Cambridge, UK) and normalized to the housekeeping gene hypoxanthine-guanine-phosphoribosyl-transferase (HPRT). […] The DNA was recovered with the Genelute PCR clean-up kit (Sigma) and analyzed by real-time PCR. […] The enrichment of DNA was calculated using the formula:fold enrichment=^2(CtlgG-CtAb), where Ct is the threshold cycle, IgG is the normal rabbit IgG and Ab is the specific antibody.\nFIG. 2 concerns how EZH2 is recruited to the MSMB gene and causes trimethylation of H3K27. […] (b) Immunoblotting (upper panel) and quantitative RT-PCR analysis (lower panel) of PC-3 cell lysates, obtained after transfection with either a control siRNA (Ctr), that is, a scrambled version of a siRNA duplex for the housekeeping gene PPP1R8 ([…] (SEQ ID NO:71), Invitrogen) or an EZH2 siRNA (KD; […] (SEQ ID NO:72), Dharmacon, Chicago, Ill., USA). […] SIPP1 served as a loading control for the immunoblotting and ACTIN was used as control for normalization in the quantitative RT-PCR. […]"}, "[1]": {"test_system": "CpG island in the promoter region of the MSMB gene", "assay": "DNA bisulfite sequencing of the MSMB CpG island in PC-3 cells", "conditions": "following addition of the DNA methyltransferase inhibitor", "protocol": "(a) PC-3 cells were treated for 48 hours with […] of the DNA methyltransferase inhibitor […]. Subsequently, the steady-state levels of the MSMB and EZH2 transcripts were determined by quantitative RT-PCR analysis with intron-spanning primers specific for the indicated genes. The data were expressed relative to the transcript level in the control condition. HPRT was used as a control for normalization. (b) A schematic representation of the MSMB gene on scale. The four exons are indicated by the black boxes and the two analyzed CpG regions by black stars. TSS, transcriptional start site. Methylated CG dinucleotides are denoted underneath by closed circles and unmethylated CGs by open circles. Genomic DNA of PC-3 cells or LNCaP cells was purified with the GenElute Mammalian Genomic DNA Miniprep kit of Sigma. Two microgram was digested overnight with BglII. The DNA was denatured with 0.3 M NaOH at […] for 30 minutes. Sodium bisulfite (3.3 M) and hydroquinone (0.5 mM) were added to the DNA and the mixture was incubated overnight at 55° C.\nThe DNA was purified with the PCR purification kit of Sigma, St Louis, Mo., USA. The DNA was desulfonated with […] for 15 minutes at 37° C. and precipitated by adding NH4Ac and ethanol. The pellet was air-dried and dissolved in 10 mM Tris and 1 mM ethylene-diaminete-traacetic acid at pH 8. […]"}, "EZH2": {"test_system": "EZH2", "assay": "Quantitative RT-PCR of the EZH2 transcript level in PC-3 cells", "protocol": "(§1) (a) The relative amounts of EZH2 (left panel) and MSMB transcripts (right panel) in the indicated prostate cell lines were determined by quantitative RT-PCR with intron-spanning primers. Human prostate PC-3 cells (adenocarcinoma), LNCaP cells (carcinoma) and DU 145 cells (carcinoma) were cultured as monolayers in 50% Dulbecco's modified Eagle's medium (DMEM) and 50% Ham's F12, RPMI1640 and DMEM, respectively, supplemented with 10% fetal calf serum. PZ-HPV-7 cells, an immortalized cell line derived from normal human prostate cells, were cultured in keratinocyte-serum free medium supplemented with 5 ng/ml human recombinant epidermal growth factor and 0.05 mg/ml bovine pituitary extract. […] A total of 1-5 mg RNA was reverse-transcribed with oligo dT primer (Sigma) and the M-MulV reverse transcriptase (Fermentas GMBH, St. Leon-Rot, Germany). cDNA (1.5%) was analyzed by real-time PCR in triplicate using a Platinum SYBR Green qPCR SuperMix-UDG (Invitrogen, Paisly, UK) in a Rotorgene detection system (Corbett Research, Cambridge, UK) and normalized to the housekeeping gene hypoxanthine-guanine-phosphoribosyl-transferase (HPRT). […] The DNA was recovered with the Genelute PCR clean-up kit (Sigma) and analyzed by real-time PCR. […]\n(§2) FIG. 2 concerns how EZH2 is recruited to the MSMB gene and causes trimethylation of H3K27. […] The enrichment on MSMB is expressed as a %±s.e. of the control value (n=3-4). […]"}, "[2]": {"test_system": "H3K27 trimethylation of the MSMB gene", "assay": "ChIP with anti-H3K27me3 antibodies on the MSMB gene in PC-3 cells", "conditions": "48 hours after siRNA transfection", "protocol": "as §1, §2"}, "[3]": {"test_system": "EZH2 association with the MSMB gene", "assay": "ChIP with anti-EZH2 antibodies on the MSMB gene in PC-3 cells", "conditions": "48 hours, loss only evident in intron 1 (primer sets 3 and 4)", "protocol": "as §1, §2"}, "PPP1R8": {"test_system": "PPP1R8", "assay": "Quantitative RT-PCR of the housekeeping gene PPP1R8 transcript in PC-3 cells", "conditions": "siRNA transfection 48 hours", "protocol": "FIG. 2 concerns how EZH2 is recruited to the MSMB gene and causes trimethylation of H3K27. (a) ChIP assays were performed in PC-3 cells using rabbit antibodies against a synthetic peptide of human EZH2 (E. Viré et al. (2006), Nature 439:871-874), trimethylated H3K27 (Upstate), trimethylated H3K9 (Upstate) and control IgGs. […] (b) Immunoblotting (upper panel) and quantitative RT-PCR analysis (lower panel) of PC-3 cell lysates, obtained after transfection with either a control siRNA (Ctr), that is, a scrambled version of a siRNA duplex for the housekeeping gene PPP1R8 ([…] (SEQ ID NO:71), Invitrogen) or an EZH2 siRNA (KD; […] (SEQ ID NO:72), Dharmacon, Chicago, Ill., USA). The PC-3 cells were plated at 1.2×10^6 cells in a 10 cm plate. At 24 hours after plating, the cells were transfected with 300 nM of siRNA duplex using Lipofectamine 2000 (Invitrogen). At 48 hours after transfection, the cells were harvested. SIPP1 served as a loading control for the immunoblotting and ACTIN was used as control for normalization in the quantitative RT-PCR. […] The immunoprecipitated DNA was analyzed by quantitative PCR using primers specific for the MSMB gene (FIG. 1, Panel b). The enrichment on MSMB is expressed as a %±s.e. of the control value (n=3-4). […]"}}}
{"compound": "Nc1ncn([C@@H]2O[C@H](CO)[C@@H](O)[C@H]2O)c(=O)n1", "note": "[50-azacytidine]", "values": [{"measurement": "reactivation of the MSMB gene", "setting": "MSMB gene", "value": "reactivated"}, {"measurement": "methylation of the CpG island in the promoter region (upstream CpG island) of the MSMB gene", "setting": "[1]", "value": "decreased"}, {"measurement": "methylation of the CpG island in the promoter region (upstream CpG island) of the MSMB gene", "setting": "[1]; listed as 5′ azacytidine", "value": "decreased methylation"}]}
{"compound": "CC(/C=C/C(=O)NO)=C\\[C@@H](C)C(=O)c1ccc(N(C)C)cc1", "note": "[TSA, trichostatin A]", "values": [{"measurement": "increase of the MSMB transcript level", "setting": "MSMB gene; TSA 50 ng/ml for nine hours, relative to control condition", "value": "six"}, {"measurement": "expression level of EZH2", "setting": "EZH2; TSA 50 ng/ml for nine hours", "value": "did not affect"}]}
{"compound": "AAGACUCUGAAUGCAGUUGCU (SEQ ID NO:72) [EZH2 siRNA]", "values": [{"measurement": "H3K27 trimethylation of the MSMB gene in intron 1 (ChIP)", "setting": "[2]", "value": "loss of H3K27 trimethylation"}, {"measurement": "increase in the expression of MSMB", "setting": "MSMB gene; siRNA transfection 48 hours, relative to control siRNA", "value": "three"}, {"measurement": "EZH2 associated with the MSMB gene (ChIP)", "setting": "[3]", "value": "less EZH2 was associated"}, {"measurement": "transcript level of control housekeeping gene PPP1R8", "setting": "PPP1R8", "value": "not affected"}, {"measurement": "knockdown of the EZH2 transcript", "setting": "EZH2; siRNA transfection 48 hours", "value": "about 70%"}]}
